For test [1], the system named is SDF-1 induced calcium flux. Description: Intracellular calcium flux, SDF-1 as agonist. It is filed as cell-based.
Test [2] concerns SDF-1α induced human monocyte migration. The test is described as follows: Migration of freshly prepared peripheral blood monocytes, SDF-1α. It is filed as cell-based. As for the experimental part: Agents may also be screened in a chemotactic assay which employs human neutrophils, eosinophils, mast cells, basophils, platelets, lymphocytes or monocytes. For monocytes, 9 mls of fresh blood are transferred to a tube containing 1 ml of 3.8% sodium citrate, and left at room temperature for 15 minutes. Five mls of this anti-coagulated blood are carefully layered over 3.5 ml Polymorphprep® (Nycomed Pharma, Oslo), and centrifuged at 500 g for 35 minutes per the manufacturer's instructions. The top band at the sample/medium interface contains monocytes. The monocytes are carefully removed with a glass pipette, and reconstituted to the original volume (5 ml). The cells are washed with PBS plus 10% fetal calf serum, and centrifuged at 400 g for 10 minutes. The washing step is repeated three times before the cells are counted. Cells are resuspended at 1 × 10^7 cells/ml in RPMI-1640 + 10% fetal calf serum (FCS). The monocytes are cultured for two days at 37°C in a humidified atmosphere of 5% CO2-
On day 2, the cells are counted, spun down, and reconstituted to 1 × 10^7 cells/ml in Gey's balanced salt solution + 1 mg/ml bovine serum albumin (BSA). […]

For test [3], the system named is IL8 induced THP-1 migration. The test is described as follows: THP-1 trans-well migration assay, IL8 as chemoattractant. It is filed as cell-based, human. The method, then:
To determine whether an agent inhibits a chemokine-induced activity, such as macrophage recruitment, varying amounts of the agent are mixed with cells in the presence of a known chemoattractant. For example, a range of known concentrations of an agent, e.g., a chemokine peptide, is incubated with a defined number (e.g., 10^4 - […]) of human THP-1 monocyte cells in individual wells of the top compartment of a trans-well plate. Chemokine (such as MCP-1, MIP1α, IL8 or SDF-1α), at a concentration known to cause significant migration of THP-1 cells in the trans-well migration assay, is placed in the lower compartment (Figure 1). […] A standard curve consisting of a two-fold dilution series of THP-1 cells (in 29 µl) is prepared to accurately quantify the number of cells that have migrated. […] Absorbance of converted dye is measured at a wavelength of 595 nm using an ELISA plate reader. The number of migrated cells in each well is then determined by interpolation of the standard curve (see also Imai et al.,J. Biol. Chem., 272, 15036 (1997)). […]
After incubation, the cells were gently removed from the top of the filter with a pipette, 20 µl of 20 mM EDTA in PBS was added into each top well, and the mixture was incubated for 20 minutes at 4°C. […] A standard curve was prepared to accurately quantify the number of THP-1 cells that had migrated. […]

The record followed here is patent publication EP2386565A2, “Compounds and methods to inhibit or augment an inflammatory response” (Cambridge Enterprise Ltd., priority 1999, dated 2000).

Positions of bridges follow the written chain, without caps; N, C: chain ends. Non-standard residues stand in square brackets, D forms with d. Residues, ends and D or L forms follow the SMILES beside them.

As to `CC[C@@H](C)[C@H]1NC(=O)[C@@H](CCC(N)=O)NC(=O)[C@H](N)CSSC[C@H](C(N)=O)NC(=O)[C@@H](CC(C)C)NC(=O)[C@@H](CC(=O)O)NC(=O)[C@H]2CCCN2C(=O)[C@@H](CCCCN)NC(=O)[C@@H](CCC(N)=O)NC(=O)[C@@H](CCCCN)NC(=O)[C@@H](Cc2c[nH]c3ccccc23)NC1=O` (H-[dC][dQ][dI][dW][dK][dQ][dK][dP][dD][dL][dC]-NH2; disulfide 1-11), in test [1], the “SDF-1 induced calcium flux (in words)” value is reported as “did block”.
For the compound `CC[C@H](C)[C@H](NC(=O)[C@H](C)NC(=O)[C@H](CC(=O)O)NC(=O)[C@@H]1CCCN1C(=O)[C@H](CCC(N)=O)NC(=O)[C@H](C)N)C(=O)N[C@@H](CC(N)=O)C(=O)N[C@@H](C)C(=O)N1CCC[C@H]1C(=O)N[C@H](C(=O)N[C@H](C(=O)N[C@@H](CS)C(=O)N[C@@H](CS)C(=O)O)[C@@H](C)O)C(C)C` [Peptide 1] (H-AQPDAINAPVTCC-OH; N-terminus and C-terminus assumed), in test [2], the “% inhibition at 100 µM versus SDF-1α” value was “n.s”. For the same compound, the “% inhibition at 100 µM versus IL8” value in test [3] (THP-1 migration, agent at 100 µM, n.s. or dash = no statistically significant inhibition) is on record as “n.s”. In addition, in test [3] (inhibition of THP-1 migration, n.s. = not statistically significant), the “ED50 (µM) versus IL8” value is recorded as “n.s”.
